Measurements reported in patent US20150374709A1, “TETRA-SUBSTITUTED NDGA DERIVATIVES VIA ETHER BONDS AND CARBAMATE BONDS AND THEIR SYNTHESIS AND PHARMACEUTICAL USE” (ERIMOS PHARMACEUTICALS LLC, priority 2006, published 2015).

What was measured:
[1] = test system: COS-7 cells; assay: MTT cytotoxicity assay in COS-7 cells (run with SEAP); type: cell-based, green monkey; details: Chlorocebus sabaeus, COS-7 test cells of the SEAP assay
Experimental: The MTT assay is a colorimetric method for determining the number of viable cells. Metabolically active cells turn the MIT reagent, (3-(4,5-dimethylthiazol-2-yl)-2,5-diphenyltetrazolium bromide, into purple-colored formazan crystals that are solubilized in dimethyl sulfoxide (DMSO). The MTT reagent is added to MTT (colorless) media. The media is added to the cells and they are incubated for 4 hours. DMSO is added to the cells and mixed. The colored solutions are then read at 540 nm and corrected at 630 nm. The IC50 is estimated by graphing the gathered data.
The cells are analyzed by the MTT assay to compare cytotoxicity to SEAP inhibition. The goal is for the drug to inhibit SEAP without being too toxic.
The MTT assay measures cellular-proliferation and is used to verify that the levels of SEAP activity are not solely due to cytotoxicity. These assays was used in screening for potential drug compound leads as antiviral agents, and particularly, anti-HIV candidates.

[2] = test system: NSCLC cell lines; assay: NCI DTP human tumor cell line screen, NSCLC panel; type: cell-based; details: NSCLC (8 cell lines)
Text: (§1) The United States National Cancer Institute (NCI) provides a developmental therapeutics program (DTP) (http://dtp.nci.nih.gov/branches/btb/ivelsp.html) to screen submitted substances in support of cancer drug discovery. The In Vitro Cell Line Screening Project (IVCLSP) is a dedicated service providing direct support to the DTP anticancer drug discovery program and is designed to screen up to 3,000 compounds per year for potential anticancer activity. The operation of this screen utilizes 60 different human tumor cell lines, representing leukemia, melanoma and cancers of the lung, colon, brain, ovary, breast, prostate, and kidney. The aim is to prioritize for farther evaluation, synthetic compounds or natural product samples showing selective growth inhibition or cell killing of particular tumor cell lines. This screen is unique in that the complexity of a 60 cell line dose response produced by a given compound results in a biological response pattern which can be utilized in pattern recognition algorithms (COMPARE program. See: http://dtp.nci.nih.gov/docs/compare/compare.html). Using these algorithms, it is possible to assign a putative mechanism of action to a test compound, or to determine that the response pattern is unique and not similar to that of any of the standard prototype compounds included in the NCI database. […]

[3] = test system: Ovarian Cancer cell lines; assay: NCI DTP human tumor cell line screen, ovarian cancer panel; type: cell-based; details: Ovarian Cancer (6 cell lines)
Text: as §1

## C[C@H](Cc1ccc(OCCCN2CCCCC2)c(OCCCN2CCCCC2)c1)[C@@H](C)Cc1ccc(OCCCN2CCCCC2)c(OCCCN2CCCCC2)c1 [Compound A, 1,4-bis{3,4-bis[3-(piperidin-1-yl)propoxy]phenyl}-2,3-dimethyl-(2R,3S)-butane]
[1]
  IC50: 700 to 900 nM
[2]
  Mean Growth Percent at 10 μM: −90.92%
[3]
  Mean Growth Percent at 10 μM: −85.89%
